Experimental data published in patent US20230200390A1, “SELECTIVE HERBICIDES BASED ON SUBSTITUTED ISOXAZOLIN CARBOXAMIDES AND MEFENPYR-DIETHYL” (BAYER AKTIENGESELLSCHAFT, priority 2020, published 2023).

Legend:
Assay type in all cases: in vivo
[1] = system: spring barley, HORVS Montoya; assay: Tank-mix; post-emergence: crop damage by herbicide with/without safener mefenpyr-diethyl; conditions: 10 DAT
Method: (§1) Seeds of crops (spring wheat, TRZAS; spring barley, HORVS; maize, ZEAMA) were placed in sandy loam soil in peat pots, covered with soil and cultivated in a greenhouse under good growth conditions. Two to three weeks after sowing, the test plants were treated at the 1 to 3-leaf stage. The herbicide/safener active compound combinations according to the invention, formulated as wettable powders or emulsion concentrates, and, in parallel tests, the correspondingly formulated individual active compounds were sprayed onto the green parts of the plants in various dosages using an amount of water of 300 l/ha (converted).
(§2) The pots were returned under good growing conditions in a glasshouse and a visual assessment of herbicidal effects was made at intervals from 1 to 3 weeks after herbicide application (DAT=days after treatment). Assessment was on a percentage basis in comparison with untreated control plants (0%=no injury, 100%=complete kill).

[2] = system: spring wheat, TRZAS Triso; assay: as above
Method: as §1, §2

[3] = system: spring barley, HORVS Montoya; assay: Seed treatment with safener; post-emergence herbicide, crop damage; conditions: 10 DAT; for HER effect + SAF / Reduction [%] / Reduction [Difference]: mefenpyr-diethyl 0.5 g a.i./kg seed
Excerpt: (§3) For safener seed treatment trials, sufficient seed amounts of the respective crops (spring wheat (TRZAS); spring barley (HORVS)) were weighed into screw cap glass bottles with a minimum volume trice of the seeds.
(§4) As a first step, specified safeners formulated as wettable powder (WP) or wettable granules (WG) were weighed out for the required dosages (g a.i./kg seed), corresponding to the seed amounts. The safener amounts were mixed with a coloured slurry blind formulation type, prediluted with milk at 3.5% fat rate (25 mgs slurry formulation plus 2 ml milk per 10 grams of seed). A tube roller was used for coating. The solutions were gradually pipetted each on the rotating seeds followed by coating for min. 3 hours until all liquid had been soaked up by the seeds. Thereafter, the coated seeds were put flat on open trays for drying over night at room temperature.
(§5) Treated seeds were then placed into pots (7 cm diameter) on the surface of sandy loam, pressed down, flat covered with additional soil and finally covered with sandy soil, also pressed down, watered, and kept under good growth conditions in a greenhouse, until the plants had reached 2-leaf-stage (BBCH 12).
(§6) At that stage, post-emergence application of the specified herbicides was done on:
(§7) a) pot sets containing plants with safener-coated seeds as described above,
(§8) b) as a reference, pot sets of plants without seed treatment.
(§9) The herbicides were formulated as wettable powder (WP). Equivalent to the spray area, compound amounts were weighed out and diluted related to the water application rate (300 l/ha) to an aqueous suspension plus additive (1 l/ha MERO). Dosage related equivalents were conventionally sprayed on trays with the potted plants.
(§10) After application, the test plants were kept under good growth conditions in a greenhouse.
(§11) Assessment timings were 10 and 21 days after treatment (DAT) with the herbicide, by visual scoring of the crop damage in % (comparison of untreated with treated plants, either sprayed only with herbicide or with herbicide on plants with treated seeds).

[4] = system: spring wheat, TRZAS Triso; assay: as above; conditions: for HER effect + SAF [%] (crop damage) / Reduction [%] / Reduction [Difference]: mefenpyr-diethyl 0.5 g a.i./kg seed; for HER effect [%] (crop damage, herbicide without safener): no safener
Excerpt: as §3, §4, §5, §6, §7, §8, §9, §10, §11

[5] = HER 6 g a.i./ha + mefenpyr-diethyl 50 g a.i./ha
[6] = HER 24 g a.i./ha + mefenpyr-diethyl 100 g a.i./ha
[7] = HER 6 g a.i./ha + mefenpyr-diethyl 50 g a.i./ha, 10 DAT
[8] = HER 24 g a.i./ha + mefenpyr-diethyl 100 g a.i./ha, 10 DAT
[9] = HER 24 g a.i./ha post-emergence
[10] = HER 8 g a.i./ha + mefenpyr-diethyl 50 g a.i./ha
[11] = HER 32 g a.i./ha + mefenpyr-diethyl 100 g a.i./ha
[12] = HER 32 g a.i./ha + mefenpyr-diethyl 100 g a.i./ha, 21 DAT
[13] = HER 32 g a.i./ha post-emergence
[14] = herbicide alone 8 g a.i./ha post-emergence
[15] = herbicide alone 32 g a.i./ha post-emergence
[16] = HER 2 g a.i./ha + mefenpyr-diethyl 50 g a.i./ha, 21 DAT
[17] = HER 8 g a.i./ha + mefenpyr-diethyl 50 g a.i./ha, 21 DAT

Question: What does the source list for `CC1(C(=O)NC2COC(C(=O)OCc3ccccc3)C2)CC(c2cccc(F)c2)=NO1` (mixture of isomers) [Example 1.79]?
Answer: HER effect + SAF [1, 5]: 0%; Reduction [%] [1, 5]: 100%; Reduction [Difference] [1, 5]: 20; HER effect + SAF [1, 6]: 0%; Reduction [%] [1, 6]: 100%; Reduction [Difference] [1, 6]: 70; HER effect ([1]; herbicide alone 6 g a.i./ha): 20%; HER effect ([1]; herbicide alone 24 g a.i./ha): 70%; HER effect + SAF [2, 7]: 0%; Reduction [%] [2, 7]: 100%; Reduction [Difference] [2, 7]: 30; HER effect + SAF [2, 8]: 10%; Reduction [%] [2, 8]: 80%; Reduction [Difference] [2, 8]: 40; HER effect ([2]; herbicide alone 6 g a.i./ha, 10 DAT): 30%; HER effect ([2]; herbicide alone 24 g a.i./ha, 10 DAT): 50%; HER effect + SAF [3, 9]: 40%; Reduction [%] [3, 9]: 43%; Reduction [Difference] [3, 9]: 30; HER effect ([3]; herbicide alone 24 g a.i./ha post-emergence): 70%; HER effect + SAF [%] (crop damage) ([4]; 10 DAT, HER dose 24 g a.i./ha): 30%; Reduction [%] ([4]; 10 DAT, HER dose 24 g a.i./ha): 40%; Reduction [Difference] ([4]; 10 DAT, HER dose 24 g a.i./ha): 20; HER effect [%] (crop damage, herbicide without safener) ([4]; 10 DAT, HER dose 24 g a.i./ha): 50%

Question: With `COC(=O)C1CC(NC(=O)C2(OC)CC(c3cc(F)cc(F)c3)=NO2)CO1` (mixture of isomers) [Example 1.72] as the molecule, how does the “HER effect + SAF” value [1, 10] read?
Answer: 0%

Question: What about the “Reduction [%]” value [1, 10] of the same molecule?
Answer: 100%

Question: What about the “Reduction [Difference]” value [1, 10] of the same molecule?
Answer: 30

Question: What about the “HER effect + SAF” value [1, 11] of the same molecule?
Answer: 10%

Question: And the “Reduction [%]” value [1, 11]?
Answer: 80%

Question: And the “Reduction [Difference]” value [1, 11]?
Answer: 40

Question: And the HER effect ([1]; herbicide alone 8 g a.i./ha)?
Answer: 30%

Question: What about the HER effect ([1]; herbicide alone 32 g a.i./ha) of the same molecule?
Answer: 50%

Question: And the “HER effect + SAF” value [2, 12]?
Answer: 10%

Question: What about the “Reduction [%]” value [2, 12] of the same molecule?
Answer: 83%

Question: What about the “Reduction [Difference]” value [2, 12] of the same molecule?
Answer: 50

Question: And the HER effect ([2]; herbicide alone 32 g a.i./ha, 21 DAT)?
Answer: 60%

Question: And the “HER effect + SAF” value ([3]; HER 8 g a.i./ha post-emergence)?
Answer: 0%

Question: What about the “Reduction [%]” value ([3]; HER 8 g a.i./ha post-emergence) of the same molecule?
Answer: 100%

Question: And the “Reduction [Difference]” value ([3]; HER 8 g a.i./ha post-emergence)?
Answer: 30

Question: What about the “HER effect + SAF” value [3, 13] of the same molecule?
Answer: 0%

Question: And the “Reduction [%]” value [3, 13]?
Answer: 100%

Question: And the “Reduction [Difference]” value [3, 13]?
Answer: 50

Question: What about the HER effect [3, 14] of the same molecule?
Answer: 30%

Question: What about the HER effect [3, 15] of the same molecule?
Answer: 50%

Question: What about the “HER effect + SAF [%] (crop damage)” value ([4]; 21 DAT, HER dose 8 g a.i./ha) of the same molecule?
Answer: 0%

Question: What about the “Reduction [%]” value ([4]; 21 DAT, HER dose 8 g a.i./ha) of the same molecule?
Answer: 100%

Question: And the “Reduction [Difference]” value ([4]; 21 DAT, HER dose 8 g a.i./ha)?
Answer: 20

Question: What about the “HER effect [%] (crop damage, herbicide without safener)” value ([4]; 21 DAT, HER dose 8 g a.i./ha) of the same molecule?
Answer: 20%

Question: And the “HER effect + SAF [%] (crop damage)” value ([4]; 21 DAT, HER dose 32 g a.i./ha)?
Answer: 10%

Question: What about the “Reduction [%]” value ([4]; 21 DAT, HER dose 32 g a.i./ha) of the same molecule?
Answer: 83%

Question: And the “Reduction [Difference]” value ([4]; 21 DAT, HER dose 32 g a.i./ha)?
Answer: 50

Question: And the “HER effect [%] (crop damage, herbicide without safener)” value ([4]; 21 DAT, HER dose 32 g a.i./ha)?
Answer: 60%

Question: For `COC(=O)C1COCC1NC(=O)C1(C)CC(c2cc(F)cc(F)c2)=NO1` (mixture of isomers) [Example 1.93], which “HER effect + SAF” value [1, 10] is on record?
Answer: 10%

Question: What about the “Reduction [%]” value [1, 10] of the same molecule?
Answer: 88%

Question: What about the “Reduction [Difference]” value [1, 10] of the same molecule?
Answer: 75

Question: What about the “HER effect + SAF” value [1, 11] of the same molecule?
Answer: 30%

Question: What about the “Reduction [%]” value [1, 11] of the same molecule?
Answer: 67%

Question: What about the “Reduction [Difference]” value [1, 11] of the same molecule?
Answer: 60

Question: What about the HER effect ([1]; herbicide alone 8 g a.i./ha) of the same molecule?
Answer: 85%

Question: What about the HER effect ([1]; herbicide alone 32 g a.i./ha) of the same molecule?
Answer: 90%

Question: And the “HER effect + SAF” value [2, 16]?
Answer: 10%

Question: What about the “Reduction [%]” value [2, 16] of the same molecule?
Answer: 88%

Question: And the “Reduction [Difference]” value [2, 16]?
Answer: 75

Question: And the “HER effect + SAF” value [2, 17]?
Answer: 50%

Question: What about the “Reduction [%]” value [2, 17] of the same molecule?
Answer: 46%

Question: And the “Reduction [Difference]” value [2, 17]?
Answer: 43

Question: And the HER effect ([2]; herbicide alone 2 g a.i./ha, 21 DAT)?
Answer: 85%

Question: And the HER effect ([2]; herbicide alone 8 g a.i./ha, 21 DAT)?
Answer: 93%

Question: What about the “HER effect + SAF” value ([3]; HER 8 g a.i./ha post-emergence) of the same molecule?
Answer: 30%

Question: What about the “Reduction [%]” value ([3]; HER 8 g a.i./ha post-emergence) of the same molecule?
Answer: 65%

Question: And the “Reduction [Difference]” value ([3]; HER 8 g a.i./ha post-emergence)?
Answer: 55

Question: What about the “HER effect + SAF” value [3, 13] of the same molecule?
Answer: 70%

Question: And the “Reduction [%]” value [3, 13]?
Answer: 22%

Question: What about the “Reduction [Difference]” value [3, 13] of the same molecule?
Answer: 20

Question: And the HER effect [3, 14]?
Answer: 85%

Question: What about the HER effect [3, 15] of the same molecule?
Answer: 90%

Question: And the “HER effect + SAF [%] (crop damage)” value ([4]; 21 DAT, HER dose 2 g a.i./ha)?
Answer: 0%

Question: What about the “Reduction [%]” value ([4]; 21 DAT, HER dose 2 g a.i./ha) of the same molecule?
Answer: 100%

Question: And the “Reduction [Difference]” value ([4]; 21 DAT, HER dose 2 g a.i./ha)?
Answer: 85

Question: What about the “HER effect [%] (crop damage, herbicide without safener)” value ([4]; 21 DAT, HER dose 2 g a.i./ha) of the same molecule?
Answer: 85%

Question: And the “HER effect + SAF [%] (crop damage)” value ([4]; 21 DAT, HER dose 8 g a.i./ha)?
Answer: 10%

Question: What about the “Reduction [%]” value ([4]; 21 DAT, HER dose 8 g a.i./ha) of the same molecule?
Answer: 89%

Question: And the “Reduction [Difference]” value ([4]; 21 DAT, HER dose 8 g a.i./ha)?
Answer: 83

Question: What about the “HER effect [%] (crop damage, herbicide without safener)” value ([4]; 21 DAT, HER dose 8 g a.i./ha) of the same molecule?
Answer: 93%

Question: And the “HER effect + SAF [%] (crop damage)” value ([4]; 21 DAT, HER dose 32 g a.i./ha)?
Answer: 20%

Question: And the “Reduction [%]” value ([4]; 21 DAT, HER dose 32 g a.i./ha)?
Answer: 79%

Question: What about the “Reduction [Difference]” value ([4]; 21 DAT, HER dose 32 g a.i./ha) of the same molecule?
Answer: 75

Question: And the “HER effect [%] (crop damage, herbicide without safener)” value ([4]; 21 DAT, HER dose 32 g a.i./ha)?
Answer: 95%
